Laboratory results reported in patent US20090143279A1 (priority 2007, published 2009).
Read-outs that look alike come from different tables or passages of the source.

Experiments:
[1] = system: mitochondrial membrane potential; assay type: cell-based, mouse; details: for ΔΨm (composite Z-score): normalized score vs mock-treated (DMSO) wells
[2] = system: reactive oxygen species; assay type: cell-based, mouse; details: for ROS (composite Z-score): normalized score vs mock-treated (DMSO) wells
[3] = system: OXPHOS gene expression; assay type: cell-based, mouse; details: for GE-HTS (composite Z-score): normalized score vs mock-treated (DMSO) wells
[4] = system: nuOXPHOS transcripts; assay type: cell-based, mouse; details: for nucOX (composite Z-score): normalized score vs mock-treated (DMSO) wells
[5] = system: mtOXPHOS transcripts; assay type: cell-based, mouse; details: for mitoOX (composite Z-score): normalized score vs mock-treated (DMSO) wells
[6] = system: cytochrome c; assay type: cell-based, mouse; details: for cyt c (composite Z-score): normalized score vs mock-treated (DMSO) wells
[7] = system: C2C12 myotubes; details: for Viability (composite Z-score): normalized score vs mock-treated (DMSO) wells
[8] = system: cellular dehydrogenase activity; details: for MTT (composite Z-score): normalized score vs mock-treated (DMSO) wells
[9] = normalized composite Z-score vs mock-treated (DMSO) wells, Conc 20 μM
[10] = composite Z-score vs mock-treated (DMSO) wells, Conc 20 μM
[11] = 20 μM, composite Z-score vs DMSO
[12] = composite Z-score vs DMSO, Conc 20 μM
[13] = composite Z-score vs DMSO wells, Conc 20 μM
[14] = Table 4, C2C12 myotubes, 48 h, JC-1, composite Z-score
[15] = Table 4, C2C12 myotubes, 48 h, composite Z-score

## COc1c2c(cc3occ(-c4ccc5c(c4)OCO5)c(=O)c13)OC(C)(C)C=C2 [methyl robustone, reference compound]
[1]; [9]
  ΔΨm: 0.715
[2]; [9]
  ROS: −0.347
[3]; [9]
  GE-HTS: 0.033
[4]; [9]
  nucOX: 0.075
[5]; [9]
  mitoOX: −0.063
[6]; [9]
  cyt c: 0.373
[7]; [9]
  Viability: 0.848
[8]; [9]
  MTT: −0.344

## OC[C@H]1O[C@@H](O[C@H]2[C@H](O)[C@@H](O)[C@H](O)O[C@@H]2CO)[C@H](O)[C@@H](O)[C@@H]1O [cellobiose (D[+])]
[1]; [9]
  ΔΨm: −0.571
[2]; [9]
  ROS: −0.298
[3]; [9]
  GE-HTS: −0.127
[4]; [9]
  nucOX: 0.051
[5]; [9]
  mitoOX: −0.466
[6]; [9]
  cyt c: 0.380
[7]; [9]
  Viability: 0.390
[8]; [9]
  MTT: 0.411

## C=C1C[C@]23C[C@@]1(O)CC[C@H]2[C@@]12C=C[C@H](O)[C@@](C)(C(=O)O1)[C@H]2[C@@H]3C(=O)O [gibberellic acid]
[1]
  ΔΨm: 2.622
[1]; [10]
  ΔΨm: −0.439
[2]
  ROS: 0.246
[2]; [10]
  ROS: 0.512
[3]
  GE-HTS: 0.021
[3]; [10]
  GE-HTS: −0.014
[4]
  nucOX: 0.066
[4]; [10]
  nucOX: 0.077
[5]
  mitoOX: −0.090
[5]; [10]
  mitoOX: −0.264
[6]
  cyt c: 0.714
[6]; [10]
  cyt c: 0.031
[7]
  Viability: −0.171
[7]; [10]
  Viability: −0.081
[8]
  MTT: −0.432
[8]; [10]
  MTT: 0.661

## Cc1cc(OC(=O)c2c(C)cc(OC(=O)c3c(C)cc(O)cc3O)cc2O)cc(O)c1C(=O)O [gyrophoric acid]
[1]; [9]
  ΔΨm: −0.842
[2]; [9]
  ROS: 0.897
[3]; [9]
  GE-HTS: −0.471
[4]; [9]
  nucOX: −0.546
[5]; [9]
  mitoOX: −0.289
[6]; [9]
  cyt c: −0.557
[7]; [9]
  Viability: −0.579
[8]; [9]
  MTT: −0.977

## Cc1cc(O)ccc1Cl [chlorocresol]
[1]; [11]
  ΔΨm: 0.528
[2]; [11]
  ROS: 0.102
[3]; [11]
  GE-HTS: 0.206
[4]; [11]
  nucOX: 0.611
[5]; [11]
  mitoOX: −0.728
[6]; [11]
  cyt c: 0.747
[7]; [11]
  Viability: −0.414
[8]; [11]
  MTT: −0.607

## CC(=O)Oc1cccc(C(=O)O)c1OC(C)=O [dipyrocetyl]
[1]; Conc 20 μM
  ΔΨm (composite Z-score): −0.363
[2]; Conc 20 μM
  ROS (composite Z-score): 1.260
[3]; Conc 20 μM
  GE-HTS (composite Z-score): −0.311
[4]; Conc 20 μM
  nucOX (composite Z-score): −0.242
[5]; Conc 20 μM
  mitoOX (composite Z-score): −0.341
[6]; Conc 20 μM
  cyt c (composite Z-score): 0.865
[7]; Conc 20 μM
  Viability (composite Z-score): 0.452
[8]; Conc 20 μM
  MTT (composite Z-score): −1.355

## C=C1C2CC[C@@]3(C)[C@H](c4ccoc4)OC(=O)C[C@]13O[C@H]1CC(=O)C(C)(C)[C@H](C(O)C(=O)OC)[C@@]21C (some centres unmarked) [6-hydroxyangolensic acid methyl ester]
[1]; [10]
  ΔΨm: 0.463
[2]; [10]
  ROS: −0.249
[3]; [10]
  GE-HTS: −1.426
[4]; [10]
  nucOX: −1.425
[5]; [10]
  mitoOX: −1.206
[6]; [10]
  cyt c: 0.817
[7]; [10]
  Viability: 1.224
[8]; [10]
  MTT: −0.490

## CCOC(=O)CCC(=O)O[C@H]1[C@H](O[C@@H]2[C@@H](C)[C@H](O[C@H]3C[C@@](C)(OC)[C@@H](O)[C@H](C)O3)[C@@H](C)C(=O)O[C@H](CC)[C@@](C)(O)[C@H](O)[C@@H](C)C(=O)[C@H](C)C[C@@]2(C)O)O[C@H](C)C[C@@H]1N(C)C [erythromycin ethylsuccinate]
[1]; [11]
  ΔΨm: −0.488
[2]; [11]
  ROS: 0.555
[3]; [11]
  GE-HTS: −0.390
[4]; [11]
  nucOX: −0.433
[5]; [11]
  mitoOX: −0.163
[6]; [11]
  cyt c: 0.220
[7]; [11]
  Viability: −0.945
[8]; [11]
  MTT: −1.100

## CC(=O)[C@@]1(O)CC[C@H]2[C@@H]3C=C(Cl)C4=CC(=O)[C@@H]5C[C@@H]5[C@]4(C)[C@H]3CC[C@@]21C [cyproterone]
[1]; [12]
  ΔΨm: −0.962
[2]; [12]
  ROS: 1.155
[3]; [12]
  GE-HTS: −0.490
[4]; [12]
  nucOX: −0.461
[5]; [12]
  mitoOX: −0.446
[6]; [12]
  cyt c: 0.548
[7]; [12]
  Viability: 0.014
[8]; [12]
  MTT: 0.079

## CCOC(=O)C1(O)Oc2cc(OC)cc(OC)c2C(=O)C1c1ccccc1 (centres unmarked) [2-ethoxycarbonyl-2-hydroxy-5,7-dimethoxyisoflavanone, reference compound]
[1]; [10]
  ΔΨm: 0.215
[2]; [10]
  ROS: 0.774
[3]; [10]
  GE-HTS: 0.280
[4]; [10]
  nucOX: 0.232
[5]; [10]
  mitoOX: 0.273
[6]; [10]
  cyt c: 0.161
[7]; [10]
  Viability: 0.511
[8]; [10]
  MTT: −0.260

## COc1cc2ccc(=O)oc2c(OC)c1OC [fraxidin methyl ether]
[1]; [10]
  ΔΨm: −0.713
[2]; [10]
  ROS: 0.276
[3]; [10]
  GE-HTS: −0.124
[4]; [10]
  nucOX: −0.104
[5]; [10]
  mitoOX: −0.103
[6]; [10]
  cyt c: −0.098
[7]; [10]
  Viability: −1.325
[8]; [10]
  MTT: −2.013

## CC(C)CCC[C@@H](C)C1CC[C@H]2[C@@H]3CCC4CC(=O)CC[C@]4(C)[C@H]3CC[C@]12C (some centres unmarked) [cholestanone]
[1]; Conc 20 μM
  ΔΨm (composite Z-score): −1.065
[2]; Conc 20 μM
  ROS (composite Z-score): 1.864
[3]; Conc 20 μM
  GE-HTS (composite Z-score): 0.165
[4]; Conc 20 μM
  nucOX (composite Z-score): 0.147
[5]; Conc 20 μM
  mitoOX (composite Z-score): 0.214
[6]; Conc 20 μM
  cyt c (composite Z-score): 0.272
[7]; Conc 20 μM
  Viability (composite Z-score): −0.208
[8]; Conc 20 μM
  MTT (composite Z-score): −2.192

## CSCC[C@H](NC=O)C(=O)N[C@@H](CC(C)C)C(=O)N[C@@H](Cc1ccccc1)C(=O)O [N-formylmethionyl-leucylphenylalanine]
[1]; [13]
  ΔΨm: 0.476
[2]; [13]
  ROS: 1.017
[3]; [13]
  GE-HTS: −0.370
[4]; [13]
  nucOX: −0.517
[5]; [13]
  mitoOX: −0.051
[6]; [13]
  cyt c: 0.374
[7]; [13]
  Viability: 0.354
[8]; [13]
  MTT: −1.240

## NC(=O)C1(O)C[C@@H](O)C(O)[C@H](O)C1 (some centres unmarked) [quinamide]
[1]; Conc 20 μM
  ΔΨm (composite Z-score): −0.518
[2]; Conc 20 μM
  ROS (composite Z-score): 0.405
[3]; Conc 20 μM
  GE-HTS (composite Z-score): −0.139
[4]; Conc 20 μM
  nucOX (composite Z-score): −0.529
[5]; Conc 20 μM
  mitoOX (composite Z-score): 0.735
[6]; Conc 20 μM
  cyt c (composite Z-score): 0.359
[7]; Conc 20 μM
  Viability (composite Z-score): −0.397
[8]; Conc 20 μM
  MTT (composite Z-score): −1.034

## COc1cc(OC)c2c(c1Cl)O[C@@]1(C(=O)CC(=O)C[C@H]1C)C2=O [griseofulvic acid, reference compound]
[1]; [14]
  ΔΨm: −0.666
[1]; [10]
  ΔΨm: −0.666
[2]; [15]
  ROS: −0.323
[2]; [10]
  ROS: −0.323
[3]; [10]
  GE-HTS: −0.370
[4]; [10]
  nucOX: −0.442
[5]; [10]
  mitoOX: −0.209
[6]; [10]
  cyt c: 0.724
[7]; [15]
  Viability: 0.176
[7]; [10]
  Viability: 0.176
[8]; [15]
  MTT: −0.469
[8]; [10]
  MTT: −0.469

## COc1ccc(-c2coc3c(OC)c(OC)cc(OC)c3c2=O)cc1 [isotectorigenin trimethyl ether]
[1]; [10]
  ΔΨm: 0.413
[2]; [10]
  ROS: 0.359
[3]; [10]
  GE-HTS: 0.437
[4]; [10]
  nucOX: 0.426
[5]; [10]
  mitoOX: 0.418
[6]; [10]
  cyt c: 0.640
[7]; [10]
  Viability: 0.976
[8]; [10]
  MTT: −1.465

## COc1cc2c(cc1OC)[C@@H]1C(=O)c3ccc4c(c3O[C@@H]1CO2)CC(C(C)C)O4 (stereo partly drawn) [beta-dihydrorotenone, reference compound]
[1]; [14]
  ΔΨm: 1.079
[1]; [12]
  ΔΨm: 1.079
[2]; [15]
  ROS: 0.122
[2]; [12]
  ROS: 0.122
[3]; [12]
  GE-HTS: −0.818
[4]; [12]
  nucOX: −0.828
[5]; [12]
  mitoOX: −0.695
[6]; [12]
  cyt c: −0.408
[7]; [15]
  Viability: −0.184
[7]; [12]
  Viability: −0.184
[8]; [15]
  MTT: −2.771
[8]; [12]
  MTT: −2.771
